Measured values from ChEMBL document CHEMBL1201862, “PubChem BioAssay data set” (2004).
Calls of active or inactive are those of the source.

Columns and labels:
Protein RecA = target: T1, Protein RecA (Mycobacterium tuberculosis, UniProt P9WHJ3); experiment: Fluorescence Cell-Free Homogeneous Dose Retest to Identify Inhibitors of RecA-Intein Splicing Activity. [Related pubchem assays (depositor defined):AID2097, AID2223, AID489010, AID492950]; type: functional
T1 sequence (P9WHJ3 whole entry): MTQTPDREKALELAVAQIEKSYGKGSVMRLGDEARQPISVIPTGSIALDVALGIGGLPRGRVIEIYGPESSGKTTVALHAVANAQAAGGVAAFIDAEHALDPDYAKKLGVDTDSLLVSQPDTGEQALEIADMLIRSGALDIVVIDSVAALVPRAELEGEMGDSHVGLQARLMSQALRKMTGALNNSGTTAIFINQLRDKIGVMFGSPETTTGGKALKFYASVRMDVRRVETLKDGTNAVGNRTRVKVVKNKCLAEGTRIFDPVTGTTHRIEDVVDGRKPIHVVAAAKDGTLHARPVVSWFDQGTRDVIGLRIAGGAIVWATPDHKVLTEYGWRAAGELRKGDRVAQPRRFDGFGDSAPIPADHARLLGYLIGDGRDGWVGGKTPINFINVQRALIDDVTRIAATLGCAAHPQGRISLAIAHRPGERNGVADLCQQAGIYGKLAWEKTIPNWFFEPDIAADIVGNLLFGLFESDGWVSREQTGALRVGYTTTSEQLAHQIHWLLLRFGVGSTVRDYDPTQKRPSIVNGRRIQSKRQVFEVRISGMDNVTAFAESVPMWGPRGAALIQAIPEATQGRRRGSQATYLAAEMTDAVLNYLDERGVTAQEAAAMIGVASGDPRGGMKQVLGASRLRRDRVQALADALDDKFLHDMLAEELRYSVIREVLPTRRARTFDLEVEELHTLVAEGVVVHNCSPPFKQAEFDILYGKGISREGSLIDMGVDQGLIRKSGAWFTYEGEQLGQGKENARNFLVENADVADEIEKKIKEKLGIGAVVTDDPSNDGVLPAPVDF

Cysteine protease ATG4B = Cysteine protease ATG4B (Homo sapiens, UniProt Q9Y4P1); type: functional;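 note: Fluorescence-based dose-response confirmation assay measuring inhibition of ATG4B activity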
[1] = target: T2, Replicative DNA helicase DnaB (Mycobacterium tuberculosis, UniProt P9WMR3); experiment: DnaB intein splicing inhibitors, dose response, biochemical, cell-free fluorescence (AID 449749); type: functional
T2 sequence (P9WMR3 whole entry): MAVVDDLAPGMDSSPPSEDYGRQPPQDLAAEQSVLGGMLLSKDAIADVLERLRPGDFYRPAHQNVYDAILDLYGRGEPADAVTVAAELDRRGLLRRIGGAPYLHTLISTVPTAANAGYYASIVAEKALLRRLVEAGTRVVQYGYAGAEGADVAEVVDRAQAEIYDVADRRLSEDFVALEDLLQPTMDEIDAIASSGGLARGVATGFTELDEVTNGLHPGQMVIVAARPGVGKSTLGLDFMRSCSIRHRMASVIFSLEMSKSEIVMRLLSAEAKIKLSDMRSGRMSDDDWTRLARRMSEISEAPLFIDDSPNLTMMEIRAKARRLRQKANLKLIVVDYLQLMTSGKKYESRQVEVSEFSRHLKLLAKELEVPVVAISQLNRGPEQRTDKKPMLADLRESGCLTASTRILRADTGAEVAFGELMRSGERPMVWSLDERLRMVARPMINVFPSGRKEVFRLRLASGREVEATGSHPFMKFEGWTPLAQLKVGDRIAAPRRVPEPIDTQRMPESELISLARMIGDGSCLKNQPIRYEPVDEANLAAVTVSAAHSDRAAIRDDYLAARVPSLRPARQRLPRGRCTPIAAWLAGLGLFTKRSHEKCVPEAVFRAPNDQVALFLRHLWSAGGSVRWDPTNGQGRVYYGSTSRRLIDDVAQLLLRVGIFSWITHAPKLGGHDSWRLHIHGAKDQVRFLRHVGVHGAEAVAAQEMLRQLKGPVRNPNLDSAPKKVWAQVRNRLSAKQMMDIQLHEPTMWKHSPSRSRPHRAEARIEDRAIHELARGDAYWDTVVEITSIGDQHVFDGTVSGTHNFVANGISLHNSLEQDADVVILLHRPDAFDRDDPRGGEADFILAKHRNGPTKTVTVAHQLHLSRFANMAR

Genome polyprotein = Genome polyprotein (dengue virus type 2, UniProt P29990); experiment: flavivirus cap methylation enzyme inhibition – biochemical, confirmation dose response, primary screen (AID 588689); type: functional
[2] = target: DNA (cytosine-5)-methyltransferase 1 (Homo sapiens, UniProt P26358); experiment: inhibition of DNA methylation by DNMT1 – biochemical, fluorescent molecular beacon, confirmation (AID 602386); type: functional
Phospholipase A2 = Phospholipase A2 (Homo sapiens, UniProt P04054); type: functional;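 note: confirmatory dose-response counterscreen on phospholipase A2, testing hits that came from an ultra-high-throughput screen for ATG4B inhibitors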
[3] = target: Serine/threonine-protein kinase PAK 1 (Homo sapiens, UniProt Q13153); type: functional
[4] = target: Serine/threonine-protein kinase MRCK alpha (Homo sapiens, UniProt Q5VT25); type: functional
[5] = target: RAC-gamma serine/threonine-protein kinase (Homo sapiens, UniProt Q9Y243); type: functional
[6] = target: Cyclin-dependent kinase 1 (Homo sapiens, UniProt P06493); type: functional;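 note: Kinome-wide panel profiling, with the target listed as panel member CDC2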
[7] = target: Serine/threonine-protein kinase pim-1 (Homo sapiens, UniProt P11309); type: functional
LIM domain kinase 1 = LIM domain kinase 1 (Homo sapiens, UniProt P53667); experiment: Navigating the Kinome. Panel member name: LIMK1; type: functional
[8] = target: Serine/threonine-protein kinase D2 (Homo sapiens, UniProt Q9BZL6); type: functional;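 note: measured against PRKD2 as one member of a kinome-wide kinase profiling panel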
[9] = target: MAP kinase-activated protein kinase 3 (Homo sapiens, UniProt Q16644); type: functional;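 note: value comes from a kinome-wide profiling panel in which MAPKAPK3 is one of the panel members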
[10] = target: T3, Serine/threonine-protein kinase Nek2 (Homo sapiens, UniProt P51955); type: functional
T3 sequence (P51955 whole entry): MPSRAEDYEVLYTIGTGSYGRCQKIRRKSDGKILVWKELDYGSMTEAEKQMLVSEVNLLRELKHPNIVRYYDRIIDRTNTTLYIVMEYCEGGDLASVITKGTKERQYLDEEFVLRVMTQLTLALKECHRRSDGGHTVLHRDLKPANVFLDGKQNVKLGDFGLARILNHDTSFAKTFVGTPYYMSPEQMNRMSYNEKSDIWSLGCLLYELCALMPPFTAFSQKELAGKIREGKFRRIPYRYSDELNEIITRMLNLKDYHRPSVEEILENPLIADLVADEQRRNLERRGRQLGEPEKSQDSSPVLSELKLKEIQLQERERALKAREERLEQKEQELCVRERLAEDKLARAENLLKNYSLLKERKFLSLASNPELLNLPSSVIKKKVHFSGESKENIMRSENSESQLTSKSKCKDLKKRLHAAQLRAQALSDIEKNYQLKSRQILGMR

[11] = target: Interleukin-1 receptor-associated kinase 4 (Homo sapiens, UniProt Q9NWZ3); type: functional
[12] = target: Rho-associated protein kinase 1 (Homo sapiens, UniProt Q13464); type: functional;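 note: measured within a broad kinome-wide panel profiling many kinases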
[13] = target: Dual specificity tyrosine-phosphorylation-regulated kinase 1A (Homo sapiens, UniProt Q13627); type: functional;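 note: measured against DYRK1A as one member of a broad kinome profiling panel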
[14] = target: Mitogen-activated protein kinase 9 (Homo sapiens, UniProt P45984); type: functional;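 note: value from a kinome panel profiling assay, MAPK9 panel entry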
[15] = target: Cyclin-dependent kinase 5 (Homo sapiens, UniProt Q00535); type: functional;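 note: CDK5 measured as one member of a kinase profiling panel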
[16] = target: Serine/threonine-protein phosphatase PP1-alpha catalytic subunit (Homo sapiens, UniProt P62136); experiment: inhibition of protein phosphatase 1 activity – biochemical, fluorescence, dose response (AID 2403);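 note: phosphatase turnover of OMFP into fluorescent 3-O-methylfluorescein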
[17] = target: 72 kDa type IV collagenase (Homo sapiens, UniProt P08253); experiment: Dose Response validation of uHTS RPN11 inhibitor hits using a MMP-2 Fluorescence assay.; type: functional
X-box-binding protein 1 = X-box-binding protein 1 (Homo sapiens, UniProt P17861); type: functional, Cricetulus griseus;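 note: confirmatory dose-response counter-screen serving a CHOP assay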
[18] = target: Serine/threonine-protein phosphatase (Homo sapiens, UniProt Q9BPW0); experiment: Counterscreen for inhibitors of PP1: fluorescence-based biochemical high throughput dose response assay to identify inhibitors of Protein Phosphatase 5 (PP5). [Related pubchem assays: 2034 (Summary (PP5 inhibitors)), 1987 (PP5 inhibitors in singlate), 2235 (PP1 inhibitors in singlate)]
[19] = target: 26S proteasome non-ATPase regulatory subunit 14 (Homo sapiens, UniProt O00487); experiment: inhibition of proteasome subunit RPN11 – biochemical, fluorescence polarization, uHTS hits, confirmation (AID 602368); type: functional
Prothrombin = Prothrombin (Bos taurus, UniProt P00735); experiment: thrombin protease inhibitors – biochemical, fluorescence polarization, uHTS hits, dose response (AID 602369); type: functional
[20] = target: MAP kinase-activated protein kinase 2 (Homo sapiens, UniProt P49137); type: functional;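 note: measured as one member of a kinome-wide kinase panel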
[21] = target: Serine/threonine-protein kinase PLK3 (Homo sapiens, UniProt Q9H4B4); type: functional
[22] = target: Ribosomal protein S6 kinase alpha-3 (Homo sapiens, UniProt P51812); type: functional;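 note: measured within a kinome-wide profiling panel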
[23] = target: Casein kinase II subunit alpha (Homo sapiens, UniProt P68400); type: functional
[24] = target: Intestinal-type alkaline phosphatase (Homo sapiens, UniProt P09923); experiment: inhibition of human intestinal alkaline phosphatase – biochemical, dose response (AID 488876); type: functional
[25] = target: T4, Alkaline phosphatase, tissue-nonspecific isozyme (Homo sapiens, UniProt P05186); experiment: TNAP enzyme inhibition by screening hits, dose response, selectivity assay for mouse IAP inhibitor project, biochemical, human TNAP, uHTS hits (AID 488906); type: functional
T4 sequence (P05186 whole entry): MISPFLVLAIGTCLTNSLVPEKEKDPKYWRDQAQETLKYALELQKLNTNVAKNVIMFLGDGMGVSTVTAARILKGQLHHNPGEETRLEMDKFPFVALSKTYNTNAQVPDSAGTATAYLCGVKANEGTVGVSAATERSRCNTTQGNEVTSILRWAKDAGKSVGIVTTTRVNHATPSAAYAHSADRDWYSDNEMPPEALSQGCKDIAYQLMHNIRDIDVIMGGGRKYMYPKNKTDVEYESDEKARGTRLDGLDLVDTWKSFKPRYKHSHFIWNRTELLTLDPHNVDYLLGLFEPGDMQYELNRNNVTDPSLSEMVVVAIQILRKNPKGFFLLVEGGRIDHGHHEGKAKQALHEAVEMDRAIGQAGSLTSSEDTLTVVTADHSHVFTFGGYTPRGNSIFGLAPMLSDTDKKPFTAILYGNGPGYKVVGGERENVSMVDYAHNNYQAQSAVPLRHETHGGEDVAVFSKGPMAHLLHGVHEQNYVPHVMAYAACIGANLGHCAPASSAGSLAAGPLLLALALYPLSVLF

Beta Lactamase = Beta Lactamase (Pseudomonas aeruginosa, UniProt Q932Y6); experiment: BLA reporter interference, concentration series – BLA reporter cells, FRET fluorescence, artefact control for TLR9-MyD88 binding inhibitor project, dose response (AID 588341); type: cell-based;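 note: cell based assay in CHO-K1 cells stably expressing beta-lactamase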
CHO = CHO cell viability loss, potency – luminescence, cytotoxicity control for TLR9-MyD88 binding inhibitor project, dose response (AID 588339); type: functional, cell-based, hamster; conditions: Cricetulus griseus;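 note: CHO cells stably coexpressing TLR9 and MyD88 fusions from primary screen; compound exposure lasted 48 hours before viability readout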
[26] = target: Intestinal-type alkaline phosphatase (Mus musculus, UniProt P24822); experiment: PubChem AID 488785; type: functional
Intestinal-type alkaline phosphatase (Mus musculus, UniProt P24822), sequence (P24822 whole entry): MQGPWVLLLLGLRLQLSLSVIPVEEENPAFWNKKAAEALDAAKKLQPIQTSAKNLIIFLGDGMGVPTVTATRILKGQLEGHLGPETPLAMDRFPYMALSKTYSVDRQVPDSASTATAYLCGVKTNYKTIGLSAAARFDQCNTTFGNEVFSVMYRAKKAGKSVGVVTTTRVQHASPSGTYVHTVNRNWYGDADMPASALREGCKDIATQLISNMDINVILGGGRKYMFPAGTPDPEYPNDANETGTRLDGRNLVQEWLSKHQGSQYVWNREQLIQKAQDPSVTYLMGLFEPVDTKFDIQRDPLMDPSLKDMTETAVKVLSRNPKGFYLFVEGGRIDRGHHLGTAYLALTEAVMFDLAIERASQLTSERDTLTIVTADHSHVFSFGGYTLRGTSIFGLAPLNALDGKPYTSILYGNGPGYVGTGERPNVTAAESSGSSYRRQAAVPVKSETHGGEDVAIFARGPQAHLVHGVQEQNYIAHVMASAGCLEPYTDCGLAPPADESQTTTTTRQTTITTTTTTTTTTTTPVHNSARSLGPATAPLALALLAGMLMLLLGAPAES

Cyclin-dependent kinase 5, sequence (Q00535 whole entry): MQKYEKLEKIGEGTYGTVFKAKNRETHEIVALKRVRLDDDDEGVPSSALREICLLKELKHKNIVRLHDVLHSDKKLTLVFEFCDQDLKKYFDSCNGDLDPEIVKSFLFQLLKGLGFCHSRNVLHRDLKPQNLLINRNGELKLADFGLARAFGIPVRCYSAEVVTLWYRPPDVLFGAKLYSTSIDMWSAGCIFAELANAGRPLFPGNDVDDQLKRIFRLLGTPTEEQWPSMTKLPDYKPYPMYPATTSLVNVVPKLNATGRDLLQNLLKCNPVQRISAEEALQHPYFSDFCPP
Serine/threonine-protein kinase pim-1, sequence (P11309 whole entry, the tested form may be a part): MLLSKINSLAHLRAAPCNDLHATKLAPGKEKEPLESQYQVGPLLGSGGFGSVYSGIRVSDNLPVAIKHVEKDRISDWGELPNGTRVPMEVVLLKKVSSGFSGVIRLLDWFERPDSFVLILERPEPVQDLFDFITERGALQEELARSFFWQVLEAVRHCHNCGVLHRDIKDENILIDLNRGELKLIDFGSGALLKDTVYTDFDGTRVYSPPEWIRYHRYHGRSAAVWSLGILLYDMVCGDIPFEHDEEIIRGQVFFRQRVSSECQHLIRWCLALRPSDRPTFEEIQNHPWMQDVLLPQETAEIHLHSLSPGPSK
Serine/threonine-protein phosphatase, sequence (Q9BPW0 whole entry): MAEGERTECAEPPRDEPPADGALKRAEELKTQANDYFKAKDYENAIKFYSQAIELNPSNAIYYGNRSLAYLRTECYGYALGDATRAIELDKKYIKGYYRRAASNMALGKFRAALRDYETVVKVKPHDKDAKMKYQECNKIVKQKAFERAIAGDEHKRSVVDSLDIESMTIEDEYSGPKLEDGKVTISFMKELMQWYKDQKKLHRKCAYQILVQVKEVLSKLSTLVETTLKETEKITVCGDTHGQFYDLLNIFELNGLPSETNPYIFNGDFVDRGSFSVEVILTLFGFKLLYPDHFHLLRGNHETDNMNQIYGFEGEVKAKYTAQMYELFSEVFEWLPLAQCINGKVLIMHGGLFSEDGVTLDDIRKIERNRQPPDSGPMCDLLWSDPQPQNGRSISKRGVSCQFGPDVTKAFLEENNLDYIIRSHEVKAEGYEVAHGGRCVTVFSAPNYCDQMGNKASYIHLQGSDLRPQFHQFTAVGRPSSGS
LIM domain kinase 1, sequence (P53667 whole entry, the tested form may be a part): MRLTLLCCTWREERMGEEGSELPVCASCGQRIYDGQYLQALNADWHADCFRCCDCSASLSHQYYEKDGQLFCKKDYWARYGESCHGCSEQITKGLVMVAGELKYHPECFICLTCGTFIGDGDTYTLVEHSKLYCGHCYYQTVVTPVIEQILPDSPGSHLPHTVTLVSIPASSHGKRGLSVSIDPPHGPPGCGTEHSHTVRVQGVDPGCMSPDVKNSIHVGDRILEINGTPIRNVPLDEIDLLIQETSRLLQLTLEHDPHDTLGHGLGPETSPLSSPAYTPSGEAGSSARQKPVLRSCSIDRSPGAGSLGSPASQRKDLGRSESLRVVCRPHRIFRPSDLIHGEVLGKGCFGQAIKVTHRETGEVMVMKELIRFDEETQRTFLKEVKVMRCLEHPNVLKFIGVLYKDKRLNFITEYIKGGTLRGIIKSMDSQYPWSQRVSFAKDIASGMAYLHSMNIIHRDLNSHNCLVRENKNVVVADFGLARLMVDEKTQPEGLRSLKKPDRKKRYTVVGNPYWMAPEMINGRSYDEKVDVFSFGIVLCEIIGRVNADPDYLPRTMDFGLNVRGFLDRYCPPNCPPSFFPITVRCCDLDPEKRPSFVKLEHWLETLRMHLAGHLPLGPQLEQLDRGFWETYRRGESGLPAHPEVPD
26S proteasome non-ATPase regulatory subunit 14, sequence (O00487 whole entry): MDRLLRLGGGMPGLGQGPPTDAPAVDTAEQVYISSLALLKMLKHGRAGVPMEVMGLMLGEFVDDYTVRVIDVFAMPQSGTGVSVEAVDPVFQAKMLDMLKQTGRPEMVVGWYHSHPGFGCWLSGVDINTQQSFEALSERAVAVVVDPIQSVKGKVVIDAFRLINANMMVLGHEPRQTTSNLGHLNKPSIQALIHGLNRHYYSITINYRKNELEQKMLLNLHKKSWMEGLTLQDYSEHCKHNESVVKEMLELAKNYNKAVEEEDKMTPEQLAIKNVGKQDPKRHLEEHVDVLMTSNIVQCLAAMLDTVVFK
MAP kinase-activated protein kinase 3, sequence (Q16644 whole entry): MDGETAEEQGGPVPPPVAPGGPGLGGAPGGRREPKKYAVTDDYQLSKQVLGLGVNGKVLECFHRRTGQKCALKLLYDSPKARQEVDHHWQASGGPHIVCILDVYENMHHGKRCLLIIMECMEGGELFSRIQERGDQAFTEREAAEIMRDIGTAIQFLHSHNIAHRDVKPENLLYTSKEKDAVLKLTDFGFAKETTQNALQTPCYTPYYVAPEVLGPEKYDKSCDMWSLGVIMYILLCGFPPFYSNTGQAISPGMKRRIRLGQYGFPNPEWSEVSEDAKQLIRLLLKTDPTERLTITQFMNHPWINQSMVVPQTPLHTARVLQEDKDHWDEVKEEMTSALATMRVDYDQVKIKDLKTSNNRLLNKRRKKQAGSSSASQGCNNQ
Cysteine protease ATG4B, sequence (Q9Y4P1 whole entry): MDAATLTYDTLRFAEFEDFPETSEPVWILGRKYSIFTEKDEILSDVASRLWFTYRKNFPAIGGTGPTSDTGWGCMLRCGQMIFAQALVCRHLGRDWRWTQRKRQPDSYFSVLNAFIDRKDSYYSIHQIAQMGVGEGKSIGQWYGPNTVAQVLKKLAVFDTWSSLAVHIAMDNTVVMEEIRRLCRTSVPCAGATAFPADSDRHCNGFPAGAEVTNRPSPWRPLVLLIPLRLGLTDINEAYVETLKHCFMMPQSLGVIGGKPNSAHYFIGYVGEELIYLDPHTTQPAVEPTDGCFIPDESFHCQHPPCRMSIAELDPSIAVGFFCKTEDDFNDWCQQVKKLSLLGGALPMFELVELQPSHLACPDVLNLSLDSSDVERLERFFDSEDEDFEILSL
Beta Lactamase, sequence (Q932Y6 whole entry, the tested form may be a part): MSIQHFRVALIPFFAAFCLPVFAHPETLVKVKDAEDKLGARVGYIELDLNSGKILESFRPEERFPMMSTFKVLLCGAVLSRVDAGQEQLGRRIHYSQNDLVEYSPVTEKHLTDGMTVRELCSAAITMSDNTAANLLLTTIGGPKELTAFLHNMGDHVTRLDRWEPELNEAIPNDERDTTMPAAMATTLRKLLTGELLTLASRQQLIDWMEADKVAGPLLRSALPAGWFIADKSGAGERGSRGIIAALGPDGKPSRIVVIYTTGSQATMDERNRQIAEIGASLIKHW
Serine/threonine-protein kinase PAK 1, sequence (Q13153 whole entry): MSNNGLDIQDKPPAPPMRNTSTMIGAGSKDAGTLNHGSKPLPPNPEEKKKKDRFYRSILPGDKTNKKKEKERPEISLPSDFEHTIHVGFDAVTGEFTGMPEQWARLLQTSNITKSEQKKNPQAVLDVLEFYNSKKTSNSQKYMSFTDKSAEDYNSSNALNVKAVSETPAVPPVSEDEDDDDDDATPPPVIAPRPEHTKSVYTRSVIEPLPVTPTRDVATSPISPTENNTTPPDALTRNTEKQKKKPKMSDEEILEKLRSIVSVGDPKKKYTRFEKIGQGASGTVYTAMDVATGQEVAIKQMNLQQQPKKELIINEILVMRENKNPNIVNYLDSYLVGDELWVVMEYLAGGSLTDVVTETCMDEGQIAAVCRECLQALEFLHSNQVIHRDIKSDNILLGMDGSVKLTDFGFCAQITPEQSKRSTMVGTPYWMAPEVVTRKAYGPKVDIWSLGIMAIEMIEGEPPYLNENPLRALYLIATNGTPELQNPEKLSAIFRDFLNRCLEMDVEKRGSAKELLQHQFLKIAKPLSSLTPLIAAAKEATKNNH
MAP kinase-activated protein kinase 2, sequence (P49137 whole entry): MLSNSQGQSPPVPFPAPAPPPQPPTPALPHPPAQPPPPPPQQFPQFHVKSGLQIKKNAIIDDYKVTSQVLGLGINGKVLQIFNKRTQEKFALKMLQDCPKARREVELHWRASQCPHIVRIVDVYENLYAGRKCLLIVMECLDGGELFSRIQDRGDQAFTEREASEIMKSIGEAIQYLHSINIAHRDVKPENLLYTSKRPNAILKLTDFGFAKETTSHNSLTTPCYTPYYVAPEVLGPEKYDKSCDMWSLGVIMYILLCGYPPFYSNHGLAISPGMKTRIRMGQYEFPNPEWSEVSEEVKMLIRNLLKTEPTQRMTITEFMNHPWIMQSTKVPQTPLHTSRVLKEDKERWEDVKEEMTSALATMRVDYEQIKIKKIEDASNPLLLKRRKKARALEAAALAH
Serine/threonine-protein phosphatase PP1-alpha catalytic subunit, sequence (P62136 whole entry): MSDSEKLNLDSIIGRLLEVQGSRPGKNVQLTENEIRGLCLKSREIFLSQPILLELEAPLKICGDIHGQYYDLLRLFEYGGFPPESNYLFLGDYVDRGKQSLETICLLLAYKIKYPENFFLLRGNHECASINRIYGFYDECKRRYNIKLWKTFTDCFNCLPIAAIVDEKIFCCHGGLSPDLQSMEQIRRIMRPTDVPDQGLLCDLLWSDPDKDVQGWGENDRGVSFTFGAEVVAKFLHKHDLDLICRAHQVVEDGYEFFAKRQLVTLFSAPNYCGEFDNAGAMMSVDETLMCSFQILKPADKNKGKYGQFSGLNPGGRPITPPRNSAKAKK

C/C(=C/CCC(C)[C@H]1CC[C@@]2(C)C3=C(CC[C@]12C)[C@@]1(C)CCC(=O)C(C)(C)[C@@H]1CC3)C(=O)O (stereo not given in full)
EC50 (Protein RecA): 5.88 µM (active) | IC50 (Cysteine protease ATG4B): 5.45 µM (active) | AC50 [1]: 2.12 µM (active) | IC50 (Genome polyprotein): 47.9 µM (active) | IC50 [2]: 5.93 µM (active) | IC50 (Phospholipase A2): 2.04 µM (active)

O=C(Nc1ccc(CO)cc1)c1cnn2c(-c3ccccc3)ccnc12
Ki [3]: > 10 µM (inactive) | Ki [4]: > 10 µM (inactive) | Ki [5]: > 10 µM (inactive) | Ki [6]: > 7.94 µM (inactive) | Ki [7]: > 10 µM (inactive) | Ki (LIM domain kinase 1): > 10 µM (inactive) | Ki [8]: > 10 µM (inactive) | Ki [9]: > 10 µM (inactive) | Ki [10]: > 10 µM (inactive) | Ki [11]: 2.51 µM (active) | Ki [12]: > 10 µM (inactive) | Ki [13]: 1.26 µM (active) | Ki [14]: 0.794 µM (active) | Ki [15]: > 10 µM (inactive)

O=C(N/N=C/c1ccccn1)c1cc(-c2ccc3ccccc3c2)[nH]n1
IC50 [16]: 6.53 µM (active) | IC50 [17]: > 100 µM (inactive) | Absolute IC50 (XBP1) (X-box-binding protein 1): 10 µM | IC50 [18]: > 67 µM (not active) | IC50 [19]: 13 µM (active) | IC50 (Prothrombin): 28.7 µM (active)

Nc1ccc2[nH]c(=O)cnc2c1
Ki [20]: 10 µM (active) | Ki [21]: 6.31 µM (active) | Ki [22]: 7.94 µM (active) | Ki [23]: 12.6 µM (active)

COc1cc(/C=C/C(O)=C/C(=O)/C=C/c2ccc(O)cc2)ccc1O [DEMETHOXYCURCUMIN]
IC50 [24]: > 100 µM (inactive) | IC50 [25]: > 100 µM (inactive) | IC50 (Beta Lactamase): 8.09 µM (active) | IC50 (CHO): 39.3 µM (inactive) | IC50 [26]: 8.38 µM (active)
